Assay results published in PMC9545129 (Chemmedchem, 2022).

What was measured:
[1] = system: LAT1; settings: cited from earlier work
[2] = molecular target: LAT1 (SLC7A5) (Homo sapiens, UniProt Q01650); test: [3H]-L-leucine efflux assay in preloaded HT-29 cells; type: cell-based; settings: concentration not stated
Chain of LAT1 (SLC7A5) (Q01650 whole entry): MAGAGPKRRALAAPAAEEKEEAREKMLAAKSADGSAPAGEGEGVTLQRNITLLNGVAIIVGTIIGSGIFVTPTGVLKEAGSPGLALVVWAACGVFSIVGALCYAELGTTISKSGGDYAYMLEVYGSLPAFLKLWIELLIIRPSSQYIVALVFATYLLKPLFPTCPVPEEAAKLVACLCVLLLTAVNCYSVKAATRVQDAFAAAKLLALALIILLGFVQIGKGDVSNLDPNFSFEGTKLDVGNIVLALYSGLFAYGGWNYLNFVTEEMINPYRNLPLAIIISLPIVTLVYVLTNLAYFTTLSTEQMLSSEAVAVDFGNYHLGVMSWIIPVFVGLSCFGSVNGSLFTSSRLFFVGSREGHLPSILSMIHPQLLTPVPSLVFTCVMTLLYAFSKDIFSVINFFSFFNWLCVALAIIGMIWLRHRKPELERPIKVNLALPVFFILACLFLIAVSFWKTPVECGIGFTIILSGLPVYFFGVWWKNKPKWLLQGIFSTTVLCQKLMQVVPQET
Chain of LAT1 (SLC7A5) (P08195 102-630 partner): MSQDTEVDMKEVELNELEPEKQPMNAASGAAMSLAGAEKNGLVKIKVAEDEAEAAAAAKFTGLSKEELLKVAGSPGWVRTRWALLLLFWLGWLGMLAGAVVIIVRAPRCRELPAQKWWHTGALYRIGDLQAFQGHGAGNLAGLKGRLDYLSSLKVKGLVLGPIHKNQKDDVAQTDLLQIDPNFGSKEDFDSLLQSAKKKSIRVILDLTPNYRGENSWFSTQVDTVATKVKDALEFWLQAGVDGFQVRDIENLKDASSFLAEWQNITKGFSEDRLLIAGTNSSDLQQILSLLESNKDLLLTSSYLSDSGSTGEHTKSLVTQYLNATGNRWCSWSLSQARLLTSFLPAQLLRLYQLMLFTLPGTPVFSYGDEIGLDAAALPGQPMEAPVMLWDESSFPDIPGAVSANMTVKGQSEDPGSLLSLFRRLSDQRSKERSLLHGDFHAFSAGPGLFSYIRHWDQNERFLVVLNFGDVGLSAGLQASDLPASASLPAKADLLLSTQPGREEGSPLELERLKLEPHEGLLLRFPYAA

## N[C@@H](Cc1c[nH]c2ccc(OCCF)cc12)C(=O)O [5‐(2‐fluoroethoxy)‐L‐tryptophan]
[1]
  LAT1 substrate properties: exhibit LAT1 substrate properties

## N[C@@H](Cc1c[nH]c2ccccc12)C(=O)O [L‐Trp, L‐tryptophan]
[2]
  [3H]-L-leucine efflux from preloaded HT-29 cells / substrate for LAT1-mediated transport: elicited clear [^3H]‐L‐leucine efflux
